Assays:
[1] = target: T1, Adenosine receptor A1 (Homo sapiens) (UniProt P30542); assay: Activity at human recombinant adenosine A1 receptor expressed in CHO cells assessed as cAMP level at 1 uM; assay type: functional, cell-based
T1 sequence (whole entry): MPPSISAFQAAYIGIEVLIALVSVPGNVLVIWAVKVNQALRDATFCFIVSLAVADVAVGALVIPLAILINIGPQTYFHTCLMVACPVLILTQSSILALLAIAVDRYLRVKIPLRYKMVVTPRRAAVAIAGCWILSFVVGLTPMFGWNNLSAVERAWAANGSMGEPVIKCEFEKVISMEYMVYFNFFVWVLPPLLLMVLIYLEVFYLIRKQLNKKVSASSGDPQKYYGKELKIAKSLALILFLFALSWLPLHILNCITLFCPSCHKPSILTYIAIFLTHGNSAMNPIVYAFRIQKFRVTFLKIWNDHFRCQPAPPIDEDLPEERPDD

[2] = target: T2, Adenosine receptor A3 (Homo sapiens) (UniProt P0DMS8); assay: Displacement of [3H]MRE3008F20 from human adenosine A3 receptor expressed in CHO cells at 10 uM; assay type: cell-based
T2 sequence (whole entry): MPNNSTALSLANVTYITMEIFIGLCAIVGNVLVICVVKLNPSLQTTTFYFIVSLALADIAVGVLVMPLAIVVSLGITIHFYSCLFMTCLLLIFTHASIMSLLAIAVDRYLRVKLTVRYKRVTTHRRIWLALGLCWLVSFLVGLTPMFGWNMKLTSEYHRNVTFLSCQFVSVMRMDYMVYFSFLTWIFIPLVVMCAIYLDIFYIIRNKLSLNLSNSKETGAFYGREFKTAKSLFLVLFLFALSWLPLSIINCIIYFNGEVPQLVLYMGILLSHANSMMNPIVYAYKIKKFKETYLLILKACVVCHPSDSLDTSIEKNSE

[3] = target: T1, Adenosine receptor A1 (Homo sapiens); assay: Displacement of [3H]DPCPX from human adenosine A1 receptor expressed in CHO cells relative to untreated control; assay type: cell-based
[4] = target: T1, Adenosine receptor A1 (Homo sapiens); assay: Displacement of [3H]CCPA from human adenosine A1 receptor expressed in CHO cells relative to untreated control; assay type: cell-based
[5] = target: T1, Adenosine receptor A1 (Homo sapiens); assay: Activity at human recombinant adenosine A1 receptor expressed in CHO cells assessed as of cAMP level at 0.1 uM; assay type: functional, cell-based
[6] = target: T1, Adenosine receptor A1 (Homo sapiens); assay: Activity at human recombinant adenosine A1 receptor expressed in CHO cells assessed as cAMP level at 0.01 uM; assay type: functional, cell-based
Adenosine receptor A1 [7] = target: T3, Adenosine receptor A1 (Homo sapiens, UniProt P30542); assay: Displacement of [3H]DPCPX from human adenosine A1 receptor expressed in CHO cells; assay type: cell-based
T3 sequence (P30542 whole entry): T1 sequence (whole entry)

[8] = target: Adenosine receptor A2a (Homo sapiens) (UniProt P29274); assay: Displacement of [3H]ZM241385 from human adenosine A2A receptor expressed in CHO cells at 10 uM; assay type: cell-based
Chain of Adenosine receptor A2a (Homo sapiens) (P29274 whole entry): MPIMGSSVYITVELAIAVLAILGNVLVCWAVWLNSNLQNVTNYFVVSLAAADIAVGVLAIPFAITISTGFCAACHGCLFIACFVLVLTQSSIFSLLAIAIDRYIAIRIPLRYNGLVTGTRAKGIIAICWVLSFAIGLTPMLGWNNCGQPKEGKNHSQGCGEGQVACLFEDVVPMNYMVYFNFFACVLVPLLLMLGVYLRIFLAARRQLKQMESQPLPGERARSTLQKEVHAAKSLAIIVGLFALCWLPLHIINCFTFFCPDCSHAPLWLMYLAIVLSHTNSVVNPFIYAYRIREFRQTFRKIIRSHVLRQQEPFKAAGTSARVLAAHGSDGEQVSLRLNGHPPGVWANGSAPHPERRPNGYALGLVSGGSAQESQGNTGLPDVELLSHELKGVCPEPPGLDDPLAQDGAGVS

[9] = target: T1, Adenosine receptor A1 (Homo sapiens); assay: Displacement of [3H]DPCPX from human adenosine A1 receptor expressed in CHO cells at 10 uM; assay type: cell-based
Adenosine receptor A1 [10] = target: T3, Adenosine receptor A1; assay: Displacement of [3H]CCPA from human adenosine A1 receptor expressed in CHO cells; assay type: cell-based
[11] = target: T1, Adenosine receptor A1 (Homo sapiens); assay: Displacement of [3H]DPCPX from human adenosine A1 receptor expressed in CHO cells assessed for per milligram of protein; assay type: cell-based
[12] = target: T1, Adenosine receptor A1 (Homo sapiens); assay: Displacement of [3H]CCPA from human adenosine A1 receptor expressed in CHO cells assessed for per milligram of protein; assay type: cell-based
[13] = target: T1, Adenosine receptor A1 (Homo sapiens); assay: Activity at human recombinant adenosine A1 receptor expressed in CHO cells assessed as cAMP level at 10 uM; assay type: functional, cell-based
Adenosine receptor A1 [14] = target: T4, Adenosine receptor A1 (Rattus norvegicus, UniProt P25099); assay: Displacement of [3H]DPCPX from adenosine A1 receptor in rat membranes; assay type: cell membranes
T4 sequence (P25099 whole entry): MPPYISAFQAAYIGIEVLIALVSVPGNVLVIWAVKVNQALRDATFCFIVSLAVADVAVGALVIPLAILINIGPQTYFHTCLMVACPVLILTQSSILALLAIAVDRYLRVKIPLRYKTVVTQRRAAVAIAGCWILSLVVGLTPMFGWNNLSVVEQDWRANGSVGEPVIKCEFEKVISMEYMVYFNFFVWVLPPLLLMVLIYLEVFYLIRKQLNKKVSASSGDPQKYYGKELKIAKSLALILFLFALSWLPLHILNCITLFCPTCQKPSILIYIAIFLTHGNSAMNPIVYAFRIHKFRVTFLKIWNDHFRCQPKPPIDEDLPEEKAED

[15] = target: T1, Adenosine receptor A1 (Homo sapiens); assay: Displacement of [3H]DPCPX from human adenosine A1 receptor expressed in CHO cells at 100 uM; assay type: cell-based

Row | SMILES | Activity [1] | Activity [2] | Activity [3] | Activity [4] | Activity [5] | Activity [6] | Kd (Adenosine receptor A1 [7]) | Activity [8] | Activity [9] | Kd (Adenosine receptor A1 [10]) | Bmax [11] | Bmax [12] | Activity [13] | Ki (Adenosine receptor A1 [14]) | Activity [15]
1 | Nc1scc(CN2CCN(Cc3ccccc3)CC2)c1C(=O)c1ccc(Cl)cc1 | 30% | 0% | 1 | 6.1 | 4% | 3% | 1.7 nM | 0% | 0% | 1.1 nM | 3420 fmol | 3160 fmol | 78% |  | 
2 | N#Cc1ccc(N2CCN(Cc3csc(N)c3C(=O)c3ccc(Cl)cc3)CC2)cc1 | 54% | 20% | 1 | 4.8 | 8% | 12% | 1.8 nM | 0% | 0% | 1.1 nM | 3260 fmol | 2490 fmol | 72% |  | 
3 | Nc1scc(CN2CCN(C3CCCCC3)CC2)c1C(=O)c1ccc(Cl)cc1 | 13% | 5% | 0.9 | 1.2 | 3% | 5% | 1.9 nM | 0% | 0% | 1.1 nM | 3200 fmol | 622 fmol | 52% |  | 
4 | Nc1scc(CN2CCN(c3ccc(C(F)(F)F)cc3)CC2)c1C(=O)c1ccc(Cl)cc1 | 84% | 15% | 1.1 | 7.7 | 53% | 10% | 1.9 nM | 0% | 0% | 1 nM | 3680 fmol | 3990 fmol | 87% |  | 
5 | CN1CCN(Cc2csc(N)c2C(=O)c2ccc(Cl)cc2)CC1 | 1% | 0% | 0.9 | 1.1 | 3% | 3% | 1.7 nM | 0% | 3% | 1.2 nM | 2990 fmol | 570 fmol | 16% |  | 
6 | Nc1scc(CN2CCN(c3ccccn3)CC2)c1C(=O)c1ccc(Cl)cc1 | 46% | 0% | 0.9 | 3.5 | 5% | 9% | 1.7 nM | 4% | 0% | 1.2 nM | 3090 fmol | 1810 fmol | 69% |  | 
7 | Nc1scc(CN2CCN(c3ccc(Cl)cc3)CC2)c1C(=O)c1ccc(Cl)cc1 | 65% | 6% | 1.1 | 7 | 48% | 10% | 1.8 nM | 3% | 0% | 1.1 nM | 3650 fmol | 3630 fmol | 78% |  | 
8 | Cc1ccc(N2CCN(Cc3csc(N)c3C(=O)c3ccc(Cl)cc3)CC2)cc1 | 22% | 0% | 0.9 | 3.9 | 3% | 10% | 1.7 nM | 0% | 0% | 1 nM | 3060 fmol | 2020 fmol | 66% |  | 
9 | Nc1scc(CN2CCN(c3ccc(F)cc3)CC2)c1C(=O)c1ccc(Cl)cc1 | 63% | 17% | 1.1 | 6.7 | 19% | 3% | 1.8 nM | 0% | 0% | 1 nM | 3560 fmol | 3470 fmol | 77% |  | 
10 | Nc1scc(CN2CCN(c3ccc4c(c3)OCO4)CC2)c1C(=O)c1ccc(Cl)cc1 | 23% | 0% | 0.9 | 1.4 | 13% | 15% | 1.9 nM | 0% | 0% | 1.1 nM | 3190 fmol | 725 fmol | 34% |  | 
11 | Nc1scc(CN2CCN(c3ncccn3)CC2)c1C(=O)c1ccc(Cl)cc1 | 25% | 0% | 1 | 2.8 | 3% | 9% | 1.7 nM | 0% | 0% | 1.1 nM | 3320 fmol | 1450 fmol | 69% |  | 
12 | Nc1scc(CN2CCN(c3ccccc3)CC2)c1C(=O)c1ccc(Cl)cc1 | 62% | 0% | 1 | 6.5 | 26% | 4% | 1.9 nM | 0% | 0% | 1 nM | 3520 fmol | 3370 fmol | 78% |  | 
13 | Cc1sc(N)c(C(=O)c2cccc(C(F)(F)F)c2)c1C | 31% | 21% |  | 1.3 | 3% | 8% |  | 0% | 0% |  | 3340 fmol | 673 fmol | 57% | 11 µM | 42%

— ChEMBL document CHEMBL1140063, “Synthesis and biological evaluation of 2-amino-3-(4-chlorobenzoyl)-4-[N-(substituted) piperazin-1-yl]thiophenes as potent allosteric enhancers of the A1 adenosine receptor” (J Med Chem, 2008)
